The values that follow are results of earlier work, collected in patent US20250352557A1, “COMPOSITIONS FOR PERITONEAL DRUG DELIVERY AND METHODS OF USE THEREOF” (Viramal Limited, priority 2023, published 2025).

The conditions of series [1]: vaginal administration; previously refractory patients.
Experiment in series [2]: not given
The source holds these as a separate data set.

Regarding `C#C[C@]1(O)CC[C@H]2[C@@H]3CCC4=Cc5oncc5C[C@]4(C)[C@H]3CC[C@@]21C` [Danazol, 17α-Pregna-2,4-dien-20-yno [2,3-d]-isoxazol-17-ol], under “oral”, the “Bioavailability with intake of foods high in fat” value is on record as “tripled”. Also, the “Time at which peak-plasma concentrations are reached” value (oral (Danatrol form)) was 2 to 3 h. Under “oral (Danatrol form), absorbed from the gastrointestinal tract”, the Peak-plasma concentrations was 50 to 80 ng/mL. In series [1], the “Average consumption of pain relief tablets (e.g., naproxen) reduced by” value is given as 60% and the Patient satisfaction was 80%.
Broadly, the Log P is the decadic logarithm of the partition coefficient of the neutral form, usually between octanol and water. Take `CC(=O)[C@H]1CC[C@H]2[C@@H]3CCC4=CC(=O)CC[C@]4(C)[C@H]3CC[C@]12C` [progesterone]: the “Log P” value in series [2] was 3.82.
